# According to PubChem BioAssay (NCI):
#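 1) Cells in 96-well plates. 2) Compound, 48 h, 5 concentrations. 3) Linear interpolation between surrounding doses. 4) Unreached endpoint = highest concentration. GI50 = concentration required for 50% inhibition of growth. The concentration for full growth arrest is given as TGI.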
# Legend:
# Test in all cases: NCI anticancer screen, dose series, 48 h
# HCC-2998 colon = tested on: HCC-2998 colon
# SK-MEL-28 melanoma = tested on: SK-MEL-28 melanoma
# SNB-19 CNS = tested on: SNB-19 CNS
# SK-OV-3 ovarian = tested on: SK-OV-3 ovarian
# NCI-H226 lung = tested on: NCI-H226 lung
# SR leukemia = tested on: SR leukemia
# NCI-H23 lung = tested on: NCI-H23 lung
# HOP-92 NSCLC = tested on: HOP-92 NSCLC
# BT-549 breast = tested on: BT-549 breast
# MOLT-4 leukemia = tested on: MOLT-4 leukemia
# U251 CNS = tested on: U251 CNS
# CCRF-CEM leukemia = tested on: CCRF-CEM leukemia
# RXF 393 renal = tested on: RXF 393 renal
# EKVX NSCLC = tested on: EKVX NSCLC
# NCI/ADR-RES ovarian = tested on: NCI/ADR-RES ovarian
# MCF7 breast = tested on: MCF7 breast
# MDA-MB-231 breast = tested on: MDA-MB-231 breast
# KM12 colon = tested on: KM12 colon
# UACC-62 melanoma = tested on: UACC-62 melanoma
# 786-0 renal = tested on: 786-0 renal
# NCI-H522 lung = tested on: NCI-H522 lung
# HCT-116 colon = tested on: HCT-116 colon
# MALME-3M melanoma = tested on: MALME-3M melanoma
# TK-10 renal = tested on: TK-10 renal
# HT29 colon = tested on: HT29 colon
# SNB-75 CNS = tested on: SNB-75 CNS
# SF-295 CNS = tested on: SF-295 CNS
# COLO 205 colon = tested on: COLO 205 colon
# RPMI-8226 leukemia = tested on: RPMI-8226 leukemia
smiles,measurement,setting,value
CN(C)CCNC(=O)c1ccc(-c2nc3ccc4[nH]ncc4c3c3c2CCC3)cc1,TGI,HCC-2998 colon,5.68 µM
same,GI50,SK-MEL-28 melanoma,1310 nM
same,TGI,SK-MEL-28 melanoma,5.34 µM
same,GI50,SNB-19 CNS,1470 nM
same,TGI,SNB-19 CNS,6.21 µM
same,GI50,SK-OV-3 ovarian,288 nM
same,TGI,SK-OV-3 ovarian,3.04 µM
same,GI50,NCI-H226 lung,1010 nM
same,TGI,NCI-H226 lung,6.34 µM
same,GI50,SR leukemia,140 nM
same,TGI,SR leukemia,2820 nM
same,GI50,NCI-H23 lung,1190 nM
same,TGI,NCI-H23 lung,3.94 µM
same,GI50,HOP-92 NSCLC,343 nM
same,TGI,HOP-92 NSCLC,1840 nM
same,GI50,BT-549 breast,650 nM
same,TGI,BT-549 breast,1430 nM
same,GI50,MOLT-4 leukemia,1040 nM
same,TGI,MOLT-4 leukemia,15.3 µM
same,GI50,U251 CNS,1020 nM
same,TGI,U251 CNS,6.51 µM
same,GI50,CCRF-CEM leukemia,857 nM
same,TGI,CCRF-CEM leukemia,28.7 µM
same,GI50,RXF 393 renal,279 nM
same,TGI,RXF 393 renal,1100 nM
same,GI50,EKVX NSCLC,891 nM
same,TGI,EKVX NSCLC,5.01 µM
same,GI50,NCI/ADR-RES ovarian,9.07 µM
same,TGI,NCI/ADR-RES ovarian,50 µM
same,GI50,MCF7 breast,657 nM
same,TGI,MCF7 breast,5.25 µM
same,GI50,MDA-MB-231 breast,927 nM
same,TGI,MDA-MB-231 breast,2840 nM
same,GI50,KM12 colon,1080 nM
same,TGI,KM12 colon,4.62 µM
same,GI50,UACC-62 melanoma,1100 nM
same,TGI,UACC-62 melanoma,6.1 µM
same,GI50,786-0 renal,882 nM
same,TGI,786-0 renal,5.61 µM
same,GI50,NCI-H522 lung,387 nM
same,TGI,NCI-H522 lung,1320 nM
same,GI50,HCT-116 colon,331 nM
same,TGI,HCT-116 colon,4.34 µM
same,GI50,MALME-3M melanoma,1260 nM
same,TGI,MALME-3M melanoma,4.13 µM
same,GI50,TK-10 renal,295 nM
same,TGI,TK-10 renal,5.38 µM
same,GI50,HT29 colon,1290 nM
same,TGI,HT29 colon,6.13 µM
same,GI50,SNB-75 CNS,543 nM
same,TGI,SNB-75 CNS,2040 nM
same,GI50,SF-295 CNS,1340 nM
same,TGI,SF-295 CNS,5.38 µM
same,GI50,COLO 205 colon,507 nM
same,TGI,COLO 205 colon,2230 nM
same,GI50,RPMI-8226 leukemia,1190 nM
same,TGI,RPMI-8226 leukemia,4.14 µM
